Test results from patent US8415272B2, “Quinoline derivatives and their use as fungicides” (Syngenta Crop Protection LLC, priority 2008, dated 2013).

How the values were obtained:
[1] = system: Puccinia recondita f.sp. tritici; experiment: Leaf disk assay, Puccinia recondita f.sp. tritici (wheat brown rust), preventive; assay type: in vivo; details: foliar, 216 h, wheat leaf segments, assessed nine days after inoculation, read-out: control of fungal infection, Puccinia recondita f.sp. tritici
Septoria nodorum = experiment: Leaf disk assay, Septoria nodorum (wheat glume blotch), preventive; assay type: in vivo; details: Parastagonospora nodorum, foliar, 96 h, wheat leaf segments, assessed four days after inoculation, read-out: control of fungal infection, Septoria nodorum
Septoria tritici = experiment: Growth inhibition in nutrient broth, Septoria tritici (leaf blotch), photometric; assay type: cell-based; details: Zymoseptoria tritici, PDB broth, 24 C, 72 hrs, read-out: control of fungal infection, Septoria tritici
Fusarium culmorum = experiment: Growth inhibition in nutrient broth, Fusarium culmorum (root rot), photometric; assay type: cell-based; details: 48 h, read-out: control of fungal infection, Fusarium culmorum
Method in brief: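 Fusarium culmorum conidia in potato dextrose broth were added to compounds in DMSO. Plates were incubated at 24 C for 48 hrs, with growth inhibition read photometrically. […]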

Botrytis cinerea = experiment: Leaf disk assay, Botrytis cinerea (grey mould) on bean, preventive; assay type: in vivo; details: foliar, 96 h, bean leaf disks, assessed four days after inoculation, read-out: control of fungal infection, Botrytis cinerea
Pythium ultimum = experiment: Growth inhibition in potato dextrose broth, Pythium ultimum (damping off), photometric; assay type: cell-based; details: Globisporangium ultimum, 24° C., 48 hours, read-out: control of fungal infection, Pythium ultimum
Method in brief: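 Growth inhibition was read photometrically at 48 hours after incubation at 24° C. Test compound was diluted from DMSO to 20 ppm in water and combined with potato dextrose broth seeded with Pythium ultimum mycelial fragments.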

Phytophthora infestans = experiment: whole plant or invertebrate; assay type: in vivo; details: in Solanum lycopersicum, foliar, 96 h, read-out: control of fungal infection, Phytophthora infestans
Plasmopara viticola = experiment: Leaf disk assay, Plasmopara viticola (downy mildew of grapevine), preventive; assay type: in vivo; details: foliar, 168 h, grapevine leaf disks, assessed seven days after inoculation, read-out: control of fungal infection, Plasmopara viticola
Pyrenophora teres = experiment: Leaf disk assay, Pyrenophora teres (barley net blotch), preventive; assay type: in vivo; details: foliar, 96 h, barley leaf segments, assessed four days after inoculation, read-out: control of fungal infection, Pyrenophora teres
Description: The compounds were tested in a leaf disk assay, with methods described below. The test compounds were dissolved in DMSO and diluted into water to 200 ppm. In the case of the test on Pythium ultimum, they were dissolved in DMSO and diluted into water to 20 ppm. Pyrenophora teres (barley net blotch): Barley leaf segments were placed on agar in a 24-well plate and sprayed with a solution of the test compound. After allowing to dry completely, for between 12 and 24 hours, the leaf disks were inoculated with a spore suspension of the fungus. After appropriate incubation the activity of a compound was assessed four days after inoculation as preventive fungicidal activity.

[2] = system: Erysiphe graminis f.sp. tritici; experiment: Leaf disk assay, Erysiphe graminis f.sp. tritici (wheat powdery mildew), preventive; assay type: in vivo; details: Blumeria graminis, foliar, 96 h, wheat leaf segments, assessed four days after inoculation, read-out: control of fungal infection, Erysiphe graminis f.sp. tritici
Method in brief: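 Preventive protocol: compound at 200 ppm in water (from DMSO) sprayed onto wheat leaf segments on agar, dried 12–24 h, then spore-inoculated. Fungicidal activity was assessed four days post-inoculation.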

C#CCC(C)(C)NC(=O)C(Oc1ccc2ncc(C#C)cc2c1)SC (centres unmarked) [Example 31]
≥ 60%: pest or weed control at 200 ppm [1] | pest or weed control at 200 ppm (Septoria nodorum) | inhibition of growth at 60 ppm (Septoria tritici) | inhibition of growth at 60 ppm (Fusarium culmorum) | pest or weed control at 200 ppm (Botrytis cinerea) | inhibition of growth at 20 ppm (Pythium ultimum) | pest or weed control at 200 ppm (Phytophthora infestans) | pest or weed control at 200 ppm (Plasmopara viticola) | pest or weed control at 200 ppm (Pyrenophora teres) | pest or weed control at 200 ppm [2]

COCC#Cc1cnc2ccc(OC(SC)C(=O)NC(C)(C)C#CCOC)cc2c1 (centres unmarked) [Example 44]
≥ 60%: inhibition of growth at 60 ppm (Septoria tritici) | pest or weed control at 200 ppm (Botrytis cinerea) | inhibition of growth at 20 ppm (Pythium ultimum) | pest or weed control at 200 ppm (Phytophthora infestans) | pest or weed control at 200 ppm (Plasmopara viticola) | pest or weed control at 200 ppm [2]

COCC#CC(C)(C)NC(=O)C(Oc1cc(C)c2ncc(C#CCO)cc2c1)SC (centres unmarked) [Example 28]
≥ 60%: pest or weed control at 200 ppm (Botrytis cinerea) | inhibition of growth at 20 ppm (Pythium ultimum) | pest or weed control at 200 ppm (Phytophthora infestans)

C#Cc1cnc2c(C)cc(OC(SC)C(=O)NC(C)(C)C=O)cc2c1 (centres unmarked) [Example 73]
≥ 60%: pest or weed control at 200 ppm (Septoria nodorum) | inhibition of growth at 60 ppm (Septoria tritici) | pest or weed control at 200 ppm (Botrytis cinerea) | inhibition of growth at 20 ppm (Pythium ultimum) | pest or weed control at 200 ppm (Phytophthora infestans) | pest or weed control at 200 ppm (Plasmopara viticola) | pest or weed control at 200 ppm (Pyrenophora teres) | pest or weed control at 200 ppm [2]

CC#CC(C)(C)NC(=O)C(OC)Oc1ccc2ncc(C#C[Si](C)(C)C)cc2c1 (centres unmarked) [Example 79]
≥ 60%: inhibition of growth at 60 ppm (Septoria tritici) | pest or weed control at 200 ppm (Botrytis cinerea) | pest or weed control at 200 ppm (Phytophthora infestans) | pest or weed control at 200 ppm (Plasmopara viticola) | pest or weed control at 200 ppm [2]

C#Cc1cnc2c(Br)cc(OC(SC)C(=O)NC(C)(C)C#CCOC)cc2c1 (centres unmarked) [Example 70]
≥ 60%: pest or weed control at 200 ppm [1] | pest or weed control at 200 ppm (Septoria nodorum) | inhibition of growth at 60 ppm (Septoria tritici) | pest or weed control at 200 ppm (Botrytis cinerea) | inhibition of growth at 20 ppm (Pythium ultimum) | pest or weed control at 200 ppm (Phytophthora infestans) | pest or weed control at 200 ppm (Plasmopara viticola) | pest or weed control at 200 ppm (Pyrenophora teres) | pest or weed control at 200 ppm [2]

CC#Cc1cnc2ccc(OC(SC)C(=O)NC(C)(C)C#CC)cc2c1 (centres unmarked) [Example 56]
≥ 60%: pest or weed control at 200 ppm (Septoria nodorum) | inhibition of growth at 60 ppm (Septoria tritici) | pest or weed control at 200 ppm (Botrytis cinerea) | inhibition of growth at 20 ppm (Pythium ultimum) | pest or weed control at 200 ppm (Phytophthora infestans) | pest or weed control at 200 ppm (Plasmopara viticola) | pest or weed control at 200 ppm [2]

CSC(Oc1cc(C)c2ncc(C#CCO)cc2c1)C(=O)NC(C)(C)C (centres unmarked) [Example 17]
≥ 60%: inhibition of growth at 60 ppm (Septoria tritici) | pest or weed control at 200 ppm (Botrytis cinerea) | inhibition of growth at 20 ppm (Pythium ultimum) | pest or weed control at 200 ppm (Phytophthora infestans) | pest or weed control at 200 ppm (Plasmopara viticola)

CC#CC(C)(C)NC(=O)C(Oc1ccc2ncc(C#CCOC)cc2c1)SC (centres unmarked) [Example 45]
≥ 60%: inhibition of growth at 60 ppm (Septoria tritici) | pest or weed control at 200 ppm (Botrytis cinerea) | inhibition of growth at 20 ppm (Pythium ultimum) | pest or weed control at 200 ppm (Phytophthora infestans) | pest or weed control at 200 ppm (Plasmopara viticola) | pest or weed control at 200 ppm [2]

C#Cc1cnc2c(Br)cc(OC(SC)C(=O)NC(C)(C)C#CC)cc2c1 (centres unmarked) [Example 131]
≥ 60%: pest or weed control at 200 ppm [1] | pest or weed control at 200 ppm (Septoria nodorum) | inhibition of growth at 60 ppm (Septoria tritici) | inhibition of growth at 60 ppm (Fusarium culmorum) | inhibition of growth at 20 ppm (Pythium ultimum) | pest or weed control at 200 ppm (Phytophthora infestans) | pest or weed control at 200 ppm (Plasmopara viticola) | pest or weed control at 200 ppm (Pyrenophora teres) | pest or weed control at 200 ppm [2]

C#CCOCC#CC(C)(C)NC(=O)C(Oc1ccc2ncc(C#C)cc2c1)SC (centres unmarked) [Example 24]
≥ 60%: pest or weed control at 200 ppm [1] | pest or weed control at 200 ppm (Septoria nodorum) | inhibition of growth at 60 ppm (Septoria tritici) | inhibition of growth at 60 ppm (Fusarium culmorum) | inhibition of growth at 20 ppm (Pythium ultimum) | pest or weed control at 200 ppm (Phytophthora infestans) | pest or weed control at 200 ppm (Plasmopara viticola) | pest or weed control at 200 ppm (Pyrenophora teres) | pest or weed control at 200 ppm [2]

C#CCOCC#CC(C)(C)NC(=O)C(Oc1cc(Cl)c2ncc(C#C)cc2c1)SC (centres unmarked) [Example 63]
≥ 60%: pest or weed control at 200 ppm [1] | pest or weed control at 200 ppm (Septoria nodorum) | inhibition of growth at 60 ppm (Septoria tritici) | pest or weed control at 200 ppm (Botrytis cinerea) | inhibition of growth at 20 ppm (Pythium ultimum) | pest or weed control at 200 ppm (Phytophthora infestans) | pest or weed control at 200 ppm (Plasmopara viticola) | pest or weed control at 200 ppm (Pyrenophora teres) | pest or weed control at 200 ppm [2]

C#Cc1cnc2c(C)cc(OC(SC)C(=O)NC(C)(C)CF)cc2c1 (centres unmarked) [Example 93]
≥ 60%: pest or weed control at 200 ppm [1] | pest or weed control at 200 ppm (Septoria nodorum) | inhibition of growth at 60 ppm (Septoria tritici) | inhibition of growth at 60 ppm (Fusarium culmorum) | inhibition of growth at 20 ppm (Pythium ultimum) | pest or weed control at 200 ppm (Phytophthora infestans) | pest or weed control at 200 ppm (Plasmopara viticola) | pest or weed control at 200 ppm (Pyrenophora teres) | pest or weed control at 200 ppm [2]

C#Cc1cnc2ccc(OC(SC)C(=O)NC(C)(C)COC)cc2c1 (centres unmarked) [Example 29]
≥ 60%: pest or weed control at 200 ppm [1] | pest or weed control at 200 ppm (Septoria nodorum) | inhibition of growth at 60 ppm (Septoria tritici) | inhibition of growth at 60 ppm (Fusarium culmorum) | inhibition of growth at 20 ppm (Pythium ultimum) | pest or weed control at 200 ppm (Phytophthora infestans) | pest or weed control at 200 ppm (Plasmopara viticola) | pest or weed control at 200 ppm (Pyrenophora teres) | pest or weed control at 200 ppm [2]

C#CCOCCC(C)(C#N)NC(=O)C(Oc1ccc2ncc(C#C)cc2c1)SC (centres unmarked) [Example 72]
≥ 60%: pest or weed control at 200 ppm [1] | pest or weed control at 200 ppm (Septoria nodorum) | inhibition of growth at 60 ppm (Septoria tritici) | pest or weed control at 200 ppm (Botrytis cinerea) | inhibition of growth at 20 ppm (Pythium ultimum) | pest or weed control at 200 ppm (Phytophthora infestans) | pest or weed control at 200 ppm (Plasmopara viticola) | pest or weed control at 200 ppm (Pyrenophora teres) | pest or weed control at 200 ppm [2]

C#Cc1cnc2c(F)c(F)c(OC(SC)C(=O)NC(C)(C)C)cc2c1 (centres unmarked) [Example 219]
≥ 60%: pest or weed control at 200 ppm [1] | pest or weed control at 200 ppm (Septoria nodorum) | inhibition of growth at 60 ppm (Septoria tritici) | inhibition of growth at 60 ppm (Fusarium culmorum) | inhibition of growth at 20 ppm (Pythium ultimum) | pest or weed control at 200 ppm (Phytophthora infestans) | pest or weed control at 200 ppm (Plasmopara viticola) | pest or weed control at 200 ppm (Pyrenophora teres) | pest or weed control at 200 ppm [2]

C#Cc1cnc2ccc(OC(SC)C(=O)NC(C)(C)CC)cc2c1 (centres unmarked) [Example 94]
≥ 60%: pest or weed control at 200 ppm [1] | pest or weed control at 200 ppm (Septoria nodorum) | inhibition of growth at 60 ppm (Septoria tritici) | inhibition of growth at 60 ppm (Fusarium culmorum) | inhibition of growth at 20 ppm (Pythium ultimum) | pest or weed control at 200 ppm (Phytophthora infestans) | pest or weed control at 200 ppm (Plasmopara viticola) | pest or weed control at 200 ppm (Pyrenophora teres) | pest or weed control at 200 ppm [2]
